Test system: 415267-285-R-J2-PDC complex spheroid viability
Assay: Anticancer human tumor 415267-285-R-J2-PDC patient-derived breast carcinoma cell line growth inhibition [POLQ]
Settings: for IC50: curve of first compound; for viability, T/C: stronger effect = lower value
Procedure, shortened: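 PDC + HUVEC + MSC complex spheroids; POLQ inhibitors ± partner drugs; top conc. at/near clinical Cmax, else 10 microM (SN-38 1 microM), half-log dilutions; 37 degrees C, 5% CO2.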

[1] = second compound 0.0316 µM, first compound 0.0316 µM
[2] = second compound 0.0316 µM, first compound 0.1 µM
[3] = second compound 0.0316 µM, first compound 0.316 µM
[4] = second compound 0.0316 µM, first compound 1 µM
[5] = second compound 0.0316 µM, first compound 3.16 µM
[6] = second compound 0.0316 µM, first compound 10 µM
[7] = second compound 0.1 µM, first compound 0.0316 µM
[8] = second compound 0.1 µM, first compound 0.1 µM
[9] = second compound 0.1 µM, first compound 0.316 µM
[10] = second compound 0.1 µM, first compound 1 µM
[11] = second compound 0.1 µM, first compound 3.16 µM
[12] = second compound 0.1 µM, first compound 10 µM
[13] = second compound 0.316 µM, first compound 0.0316 µM
[14] = second compound 0.316 µM, first compound 0.1 µM
[15] = second compound 0.316 µM, first compound 0.316 µM
[16] = second compound 0.316 µM, first compound 1 µM
[17] = second compound 0.316 µM, first compound 3.16 µM
[18] = second compound 0.316 µM, first compound 10 µM
[19] = second compound 1 µM, first compound 0.0316 µM
[20] = second compound 1 µM, first compound 0.1 µM
[21] = second compound 1 µM, first compound 0.316 µM
[22] = second compound 1 µM, first compound 1 µM
[23] = second compound 1 µM, first compound 3.16 µM
[24] = second compound 1 µM, first compound 10 µM
[25] = second compound 3.16 µM, first compound 0.0316 µM
[26] = second compound 3.16 µM, first compound 0.1 µM
[27] = second compound 3.16 µM, first compound 0.316 µM
[28] = second compound 3.16 µM, first compound 1 µM
[29] = second compound 3.16 µM, first compound 3.16 µM
[30] = second compound 3.16 µM, first compound 10 µM
[31] = second compound 10 µM, first compound 0.0316 µM
[32] = second compound 10 µM, first compound 0.1 µM
[33] = second compound 10 µM, first compound 0.316 µM
[34] = second compound 10 µM, first compound 1 µM
[35] = second compound 10 µM, first compound 3.16 µM
[36] = second compound 10 µM, first compound 10 µM
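Also: spheroids exposed to compounds for one week before readout.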
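For viability, T/C in this document: luminescence used as stand-in measure of viable cells; 100% = DMSO vehicle control viability.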

O=c1[nH]cc(F)c(=O)[nH]1 + Nc1ccc(C#CCN(C(=O)Cc2ncc(C(F)(F)F)cc2C(F)(F)F)c2ccc(F)cc2)nn1
IC50 (second compound 0.0316 µM): 435 nM
IC50 (second compound 0.1 µM): 262 nM
IC50 (second compound 0.316 µM): 283 nM
IC50 (second compound 1 µM): 307 nM
IC50 (second compound 3.16 µM): 268 nM
IC50 (second compound 10 µM): 309 nM
viability, T/C [1]: 101%
viability, T/C [2]: 93%
viability, T/C [3]: 57.5%
viability, T/C [4]: 21.4%
viability, T/C [5]: 29.9%
viability, T/C [6]: 40.1%
viability, T/C [7]: 86.4%
viability, T/C [8]: 85.5%
viability, T/C [9]: 43%
viability, T/C [10]: 20.9%
viability, T/C [11]: 30%
viability, T/C [12]: 38.5%
viability, T/C [13]: 93.6%
viability, T/C [14]: 97%
viability, T/C [15]: 45.1%
viability, T/C [16]: 24.4%
viability, T/C [17]: 24.6%
viability, T/C [18]: 46.4%
viability, T/C [19]: 97%
viability, T/C [20]: 92.7%
viability, T/C [21]: 49.1%
viability, T/C [22]: 27.1%
viability, T/C [23]: 30.4%
viability, T/C [24]: 35.4%
viability, T/C [25]: 106%
viability, T/C [26]: 90.7%
viability, T/C [27]: 44.5%
viability, T/C [28]: 22.4%
viability, T/C [29]: 24.1%
viability, T/C [30]: 42.3%
viability, T/C [31]: 113%
viability, T/C [32]: 87%
viability, T/C [33]: 52.5%
viability, T/C [34]: 26.5%
viability, T/C [35]: 26.6%
viability, T/C [36]: 39%

CC1COCCN1c1cc(-c2ccnn2C)c2ccnc(-c3ccn[nH]3)c2n1 (stereo not given) + COC1C(OC(N)=O)C(O)C(Oc2ccc3c(O)c(NC(=O)c4ccc(O)c(CC=C(C)C)c4)c(=O)oc3c2C)OC1(C)C
IC50 (second compound 0.0316 µM): < 31.6 nM
IC50 (second compound 0.1 µM): 36.3 nM
IC50 (second compound 0.316 µM): < 31.6 nM
IC50 (second compound 1 µM): 39 nM
IC50 (second compound 3.16 µM): 35.4 nM
IC50 (second compound 10 µM): 41.2 nM
viability, T/C [1]: 47%
viability, T/C [2]: 12.6%
viability, T/C [3]: 6.23%
viability, T/C [4]: 5.27%
viability, T/C [5]: 4.48%
viability, T/C [6]: 3.41%
viability, T/C [7]: 55.3%
viability, T/C [8]: 11.5%
viability, T/C [9]: 6.16%
viability, T/C [10]: 3.96%
viability, T/C [11]: 4.03%
viability, T/C [12]: 4.38%
viability, T/C [13]: 48.4%
viability, T/C [14]: 11.8%
viability, T/C [15]: 5.97%
viability, T/C [16]: 5.08%
viability, T/C [17]: 4.16%
viability, T/C [18]: 5.11%
viability, T/C [19]: 58.5%
viability, T/C [20]: 11.5%
viability, T/C [21]: 5.09%
viability, T/C [22]: 6.05%
viability, T/C [23]: 4.42%
viability, T/C [24]: 4.44%
viability, T/C [25]: 53.9%
viability, T/C [26]: 15.8%
viability, T/C [27]: 7.15%
viability, T/C [28]: 5.85%
viability, T/C [29]: 4.13%
viability, T/C [30]: 4.16%
viability, T/C [31]: 61.3%
viability, T/C [32]: 12.8%
viability, T/C [33]: 6.51%
viability, T/C [34]: 4.55%
viability, T/C [35]: 4.33%
viability, T/C [36]: 4.73%

COc1cc(C2c3cc4c(cc3C(OC3OC5COC(C)OC5C(O)C3O)C3COC(=O)C23)OCO4)cc(OC)c1O (stereo not given) + Nc1ccc(C#CCN(C(=O)Cc2ncc(C(F)(F)F)cc2C(F)(F)F)c2ccc(F)cc2)nn1
IC50 (second compound 0.0316 µM): 193 nM
IC50 (second compound 0.1 µM): 193 nM
IC50 (second compound 0.316 µM): 194 nM
IC50 (second compound 1 µM): 169 nM
IC50 (second compound 3.16 µM): 175 nM
IC50 (second compound 10 µM): 158 nM
viability, T/C [1]: 93.4%
viability, T/C [2]: 91.5%
viability, T/C [3]: 19%
viability, T/C [4]: 6.3%
viability, T/C [5]: 4.79%
viability, T/C [6]: 4.39%
viability, T/C [7]: 106%
viability, T/C [8]: 102%
viability, T/C [9]: 11.6%
viability, T/C [10]: 6.09%
viability, T/C [11]: 4.34%
viability, T/C [12]: 4.16%
viability, T/C [13]: 107%
viability, T/C [14]: 97.8%
viability, T/C [15]: 14.4%
viability, T/C [16]: 6.8%
viability, T/C [17]: 5.09%
viability, T/C [18]: 4.49%
viability, T/C [19]: 106%
viability, T/C [20]: 79.4%
viability, T/C [21]: 15%
viability, T/C [22]: 6.3%
viability, T/C [23]: 4.91%
viability, T/C [24]: 4.43%
viability, T/C [25]: 119%
viability, T/C [26]: 84.3%
viability, T/C [27]: 13.4%
viability, T/C [28]: 6.83%
viability, T/C [29]: 4.94%
viability, T/C [30]: 4.27%
viability, T/C [31]: 103%
viability, T/C [32]: 72.5%
viability, T/C [33]: 16.2%
viability, T/C [34]: 6.36%
viability, T/C [35]: 4.59%
viability, T/C [36]: 4.33%

C=CCn1c(=O)c2cnc(Nc3ccc(N4CCN(C)CC4)cc3)nc2n1-c1cccc(C(C)(C)O)n1 + Nc1ccc(C#CCN(C(=O)Cc2ncc(C(F)(F)F)cc2C(F)(F)F)c2ccc(F)cc2)nn1
IC50 (second compound 0.0316 µM): 447 nM
IC50 (second compound 0.1 µM): 404 nM
IC50 (second compound 0.316 µM): 427 nM
IC50 (second compound 1 µM): 396 nM
IC50 (second compound 3.16 µM): 342 nM
IC50 (second compound 10 µM): 318 nM
viability, T/C (second compound 0.0316 µM, first compound 0.00316 µM): 95.1%
viability, T/C (second compound 0.0316 µM, first compound 0.01 µM): 102%
viability, T/C [1]: 94.8%
viability, T/C [2]: 98.2%
viability, T/C [3]: 69%
viability, T/C [4]: 5.9%
viability, T/C (second compound 0.1 µM, first compound 0.00316 µM): 107%
viability, T/C (second compound 0.1 µM, first compound 0.01 µM): 104%
viability, T/C [7]: 102%
viability, T/C [8]: 87.6%
viability, T/C [9]: 62.2%
viability, T/C [10]: 6.38%
viability, T/C (second compound 0.316 µM, first compound 0.00316 µM): 108%
viability, T/C (second compound 0.316 µM, first compound 0.01 µM): 108%
viability, T/C [13]: 86.9%
viability, T/C [14]: 96.3%
viability, T/C [15]: 65.5%
viability, T/C [16]: 5.51%
viability, T/C (second compound 1 µM, first compound 0.00316 µM): 104%
viability, T/C (second compound 1 µM, first compound 0.01 µM): 95%
viability, T/C [19]: 101%
viability, T/C [20]: 87%
viability, T/C [21]: 61.1%
viability, T/C [22]: 4.94%
viability, T/C (second compound 3.16 µM, first compound 0.00316 µM): 106%
viability, T/C (second compound 3.16 µM, first compound 0.01 µM): 93.1%
viability, T/C [25]: 95.3%
viability, T/C [26]: 92.5%
viability, T/C [27]: 53%
viability, T/C [28]: 7.32%
viability, T/C (second compound 10 µM, first compound 0.00316 µM): 94.3%
viability, T/C (second compound 10 µM, first compound 0.01 µM): 95.5%
viability, T/C [31]: 107%
viability, T/C [32]: 91.7%
viability, T/C [33]: 50.3%
viability, T/C [34]: 5.62%

CCCS(=O)(=O)Nc1ccc(F)c(C(=O)c2c[nH]c3ncc(-c4ccc(Cl)cc4)cc23)c1F + Cc1cccc(N(C)C(=O)C2C(O)CCN2c2nc(C)cc(C(F)(F)F)c2C#N)c1
IC50 (second compound 0.0316 µM): > 10000 nM
IC50 (second compound 0.1 µM): > 10000 nM
IC50 (second compound 0.316 µM): > 10000 nM
IC50 (second compound 1 µM): > 10000 nM
IC50 (second compound 3.16 µM): > 10000 nM
IC50 (second compound 10 µM): > 10000 nM
viability, T/C [1]: 98.8%
viability, T/C [2]: 111%
viability, T/C [3]: 99%
viability, T/C [4]: 93.8%
viability, T/C [5]: 86.3%
viability, T/C [6]: 91.2%
viability, T/C [7]: 104%
viability, T/C [8]: 93.5%
viability, T/C [9]: 93.4%
viability, T/C [10]: 102%
viability, T/C [11]: 96.5%
viability, T/C [12]: 88.9%
viability, T/C [13]: 105%
viability, T/C [14]: 99.4%
viability, T/C [15]: 90.3%
viability, T/C [16]: 102%
viability, T/C [17]: 97.7%
viability, T/C [18]: 86.7%
viability, T/C [19]: 105%
viability, T/C [20]: 101%
viability, T/C [21]: 102%
viability, T/C [22]: 99.9%
viability, T/C [23]: 107%
viability, T/C [24]: 79.3%
viability, T/C [25]: 111%
viability, T/C [26]: 103%
viability, T/C [27]: 104%
viability, T/C [28]: 104%
viability, T/C [29]: 93.7%
viability, T/C [30]: 91.1%
viability, T/C [31]: 96.4%
viability, T/C [32]: 96%
viability, T/C [33]: 109%
viability, T/C [34]: 111%
viability, T/C [35]: 94%
viability, T/C [36]: 73.8%
